Laboratory results taken from PubChem BioAssay AID1745844 (Carcinogenic Potency Database (CPDB), 2022).
The source made the active and inactive calls. How the calls were made is not given here.

Tested on: rodent lifetime carcinogenesis bioassay, tumor incidence TD50
Experiment: chronic cancer bioassays in animals – CPDB, compiled studies (AID 1745844)

`C1CCCNCCC1` gave a TD50 (rat, strain MRC, females, in drinking water, site: any site (literature study), lesion: several types, types named in the paper, dosed 75 weeks, study length 104 weeks) of 15.8 mg/kg/day and a TD50 (rat, strain MRC, males, in drinking water, site: any site (literature study), lesion: several types, types named in the paper, dosed 75 weeks, study length 104 weeks) of 6.37 mg/kg/day.
In the case of `C#C[C@]1(OC(C)=O)CC[C@H]2[C@@H]3CCC4=CC(=O)CC[C@@H]4[C@H]3CC[C@@]21C` (tested in a mixture with another compound), the carcinogen call (monkey, strain Rhesus [Macaca mulatta], females, in feed, site: pancreatic duct, lesion: adenoma, dosed 391 weeks, study length 521 weeks) is reported as “negative (inactive)”, the TD50 (monkey, strain Rhesus [Macaca mulatta], females, in feed, site: skin, lesion: papilloma, dosed 391 weeks, study length 521 weeks) is reported as 10.1 mg/kg/day (inactive) and the TD50 (monkey, strain Rhesus [Macaca mulatta], females, in feed, site: uterus, lesion: leiomyoma, dosed 391 weeks, study length 521 weeks) is reported as 6.42 mg/kg/day (inactive). The carcinogen call (mouse, strain C57L/He x 129/Rr x C3HeB/De x SWR/Ly, females, by gavage, site: any site (literature study), lesion: several types, types named in the paper, dosed 69 weeks, study length 69 weeks) was “negative (inactive)”, the carcinogen call (mouse, strain C57L/He x 129/Rr x C3HeB/De x SWR/Ly, females, by gavage, site: any site (literature study), lesion: several types, types named in the paper, dosed 69 weeks, study length 82 weeks) was “negative (inactive)” and the carcinogen call (mouse, strain C57L/He x 129/Rr x C3HeB/De x SWR/Ly, females, by gavage, site: lung, lesion: one or several types, types not named, dosed 69 weeks, study length 69 weeks) was “negative (inactive)”. For the same compound, the TD50 (mouse, strain C57L, females, by gavage, site: pituitary gland, lesion: one or several types, types not named, dosed 89 weeks, study length 89 weeks) was 1.34 mg/kg/day, the TD50 (rat, strain Sprague-Dawley albino, both sexes, in feed, site: any site (literature study), lesion: several types, types named in the paper, dosed 104 weeks, study length 104 weeks) was 14.2 mg/kg/day and the TD50 (rat, strain Sprague-Dawley albino, both sexes, in feed, site: liver, lesion: hepatocellular adenoma, dosed 104 weeks, study length 104 weeks) was 7.59 mg/kg/day. For the same compound, the TD50 (rat, strain Sprague-Dawley albino, both sexes, in feed, site: liver, lesion: hyperplastic nodule, dosed 104 weeks, study length 104 weeks) was 1.94 mg/kg/day, the TD50 (rat, strain Sprague-Dawley albino, both sexes, in feed, site: mammary gland, lesion: adenocarcinoma, dosed 104 weeks, study length 104 weeks) was 76.8 mg/kg/day and the TD50 (rat, strain Sprague-Dawley albino, both sexes, in feed, site: mammary gland, lesion: adenoma, dosed 104 weeks, study length 104 weeks) was 14.8 mg/kg/day. For the same compound, the TD50 (rat, strain Sprague-Dawley albino, both sexes, in feed, site: mammary gland, lesion: fibroepithelial tumor, dosed 104 weeks, study length 104 weeks) was 21 mg/kg/day, the TD50 (rat, strain Sprague-Dawley albino, both sexes, in feed, site: mammary gland, lesion: several types, types named in the paper, dosed 104 weeks, study length 104 weeks) was 6.66 mg/kg/day and the TD50 (rat, strain Sprague-Dawley albino, both sexes, in feed, site: pituitary gland, lesion: chromophobe adenoma, dosed 104 weeks, study length 104 weeks) was 5.31 mg/kg/day. The TD50 (rat, strain Sprague-Dawley albino, both sexes, in feed, site: uterus, lesion: adenomatous endometrial polyp, dosed 104 weeks, study length 104 weeks) was 27.4 mg/kg/day.
With `C=CC(O)c1ccc2c(c1)OCO2` (configuration not stated) the TD50 (mouse, strain (B6C3F1 x B6C3 background, brachymorphic) inter se = B6C3F2 br, females, in feed, site: liver, lesion: hepatoma, dosed 52 weeks, study length 69 weeks) was 1530 mg/kg/day, the TD50 (mouse, strain (B6C3F1 x B6C3 background, brachymorphic) inter se = B6C3F2 ph, females, in feed, site: liver, lesion: hepatoma, dosed 52 weeks, study length 69 weeks) was 53.3 mg/kg/day and the TD50 (mouse, strain Charles River CD1, females, in feed, site: liver, lesion: hepatocellular carcinoma, dosed 51 weeks, study length 73 weeks) was 68 mg/kg/day. The TD50 (mouse, strain Charles River CD1, females, in feed, site: liver, lesion: hepatoma, dosed 52 weeks, study length 69 weeks) was 49.1 mg/kg/day, the TD50 (mouse, strain Charles River CD1, females, in feed, site: lung, lesion: adenoma, dosed 52 weeks, study length 69 weeks) was 3670 mg/kg/day and the TD50 (mouse, strain Charles River CD1, females, in feed, site: subcutaneous tissue, lesion: angiosarcoma, dosed 51 weeks, study length 73 weeks) was 1550 mg/kg/day. It also gave a TD50 (mouse, strain Charles River CD1, males, in feed, site: interscapulum, lesion: angiosarcoma, dosed 56 weeks, study length 69 weeks) of 429 mg/kg/day, a TD50 (mouse, strain Charles River CD1, males, in feed, site: liver, lesion: carcinoma, dosed 56 weeks, study length 69 weeks) of 18900 mg/kg/day and a TD50 (mouse, strain Charles River CD1, males, in feed, site: lung, lesion: adenoma, dosed 56 weeks, study length 69 weeks) of 5470 mg/kg/day. The TD50 (rat, strain Charles River CD (Sprague-Dawley), males, in feed, site: forestomach, lesion: papilloma, dosed 36 weeks, study length 52 weeks) was 65.8 mg/kg/day, the TD50 (rat, strain Charles River CD (Sprague-Dawley), males, in feed, site: forestomach, lesion: papilloma, dosed 43 weeks, study length 69 weeks) was 59.8 mg/kg/day and the TD50 (rat, strain Charles River CD (Sprague-Dawley), males, in feed, site: liver, lesion: carcinoma, dosed 36 weeks, study length 52 weeks) was 12.1 mg/kg/day. For the same compound, the TD50 (rat, strain Charles River CD (Sprague-Dawley), males, in feed, site: liver, lesion: carcinoma, dosed 43 weeks, study length 69 weeks) was 16.7 mg/kg/day and the TD50 (rat, strain Charles River CD (Sprague-Dawley), males, in feed, site: liver, lesion: hepatocellular carcinoma, dosed 58 weeks, study length 95 weeks) was 47.8 mg/kg/day.
